The record followed here is patent publication US6572879B1, “Formulations for transdermal delivery of pergolide” (Alza Corporation, priority 1995, dated 2003).

Structures can show the parent of a compound that is named as a salt.

Usually half-life stands for the time needed for the level to fall by half in the phase considered.

A short description of series [1]: In vitro flux of pergolide through human cadaver epidermis in diffusion cells at 35° C. As to conditions: 2% by weight in water donor, no permeation enhancer, over a period of 50 hours. Type of series: in vitro ADME. How it is done: Several test samples were made to measure the flux of pergolide base and mesylate through human cadaver epidermis from donor vehicles containing the pergolide base or mesylate mixed with water alone, water and ethanol, or mineral oil alone as shown in Table 1. Transdermal fluxes were obtained using human epidermis at 35° C. in standard diffusion cells. FIGS. 5 and 6 graphically depict the results.
Circular pieces of human epidermis were placed with stratum corneum facing up. The release liner of the laminate was removed and the system was centered over the stratum corneum side of the epidermis. The edges of epidermis were then folded around the system. This assembly was then mounted on a Teflon rod. A known volume of receptor solution was then placed in a test tube and was equilibrated at 35° C. The Teflon rod with system and epidermis attached was then placed in a water bath at 35° C. Mixing was accomplished by attachment to a motor which caused constant vertical mixing.
At given time intervals, the entire receptor solution was removed from the test tubes and replaced with an equal volume of fresh receptor solutions previously equilibrated at 35° C. The receptor solutions are stored in capped vials at room temperature until assayed for pergolide content by HPLC. From the drug concentration and the volume of the receptor solutions, the area of permeation and the time interval, the flux of the drug through the epidermis was calculated as follows: (drug concentration X volume of receptor)/(area x time)=flux (μg/cm^2·hr).

The nature of series [2]: Plasma terminal half-life of pergolide administered transdermally. Type of series: in vivo. As to conditions: human, topical or ocular.

Regarding `CCCN1CC(CSC)C[C@@H]2c3cccc4[nH]cc(c34)C[C@H]21` (some centres unmarked) [pergolide base, 8-[(methylthio)methyl]-6-propylergoline], the “average baseline skin flux” value in series [1] is recorded as “approximately 0.3 μg/cm^2·hr”; in series [1] (listed as pergolide. base), “about 0.3 μg/cm^2·hr”.

On to `CCCN1C[C@H](CSC)C[C@@H]2c3cccc4[nH]cc(c34)C[C@H]21` [pergolide mesylate, 8-[(methylthiolmethyl]6-propylergoline monomethanesulfonate)], for which the “average baseline skin flux” value is recorded as “approximately 1.1 μg/cm^2·hr” in series [1] and “about 1.1 μg/cm^2·hr” in series [1] (listed as pergolide6mesylate).

Compound `CCCN1CC(CSC)C[C@@H]2c3cccc4[nH]cc(c34)C[C@H]21` (some centres unmarked) [pergolide, 8-[(methylthio)methyl]-6-propylergoline] came in with a half-life in series [2] of 5 to 10 h.
